Here are results for eight compounds from patent publication US7923465B2, “Cannabinoid receptor ligands, pharmaceutical compositions containing them, and process for their preparation” (priority 2005, dated 2011).

The target of assay [1] is hCB1 (Homo sapiens, UniProt P21554). The assay can be described thus: In vitro binding assay using hCB1-CHO membranes, [3H]-CP-55,940 displacement (Protocol II). Also noted: expressed in transfected cells; host or cells: CHO (hCB1-CHO, generated in-house). Here is the method: II. Protocol for In Vitro Assay Using hCB1-CHO Membranes
The reaction was set up in a total volume of 200 μl in PEI (Poly(ethyleneimine)) (0.2%) precoated Millipore GFB (Glass Fibre-B) filter plates. 1 mM stocks of test compounds were prepared in DMSO and tested at a final concentration of 300 nM. The non-specific binding was determined by 0.5 μM CP-55, 940. […] The assay mixture (with or without the test compound) was incubated at 37° C. for 1 hour. The reaction was stopped by rapid filtration under vacuum and the radioactivity on the filters was measured by liquid scintillation counting.

In assay [2] the target is hCB2 (Homo sapiens, UniProt P34972). Briefly: In vitro binding assay using hCB2-CHO membranes, [3H]-CP-55,940 displacement (Protocol IV). Also noted: expressed in transfected cells; host or cells: CHO (hCB2-CHO, generated in-house). To be noted: hCB2-CHO membranes, [3H]-CP-55,940 displacement. A digest of the protocol:
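Compounds were tested at a single 300 nM final concentration for displacing 0.75 nM [3H]-CP-55,940 from hCB2-CHO membranes (1 h, 30 °C, 50 mM Tris pH 7.4, 5 mM MgCl2, 1 mM EDTA, 0.1% BSA). Filter-bound radioactivity was counted, with 0.5 μM unlabelled CP-55,940 for nonspecific binding; results are % displacement.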

For assay [3], the target named is CB1 (Rattus norvegicus, UniProt P20272). Briefly: Rat CB1 receptor binding using brain membrane, [3H]SR141716A displacement (Protocol I). Also noted: CB1 receptor present in a rat brain membrane preparation; from tissue; host or cells: rat brain membrane. To be noted: rat brain membrane, [3H]SR141716A displacement.
Sequence of CB1 (P20272 whole entry): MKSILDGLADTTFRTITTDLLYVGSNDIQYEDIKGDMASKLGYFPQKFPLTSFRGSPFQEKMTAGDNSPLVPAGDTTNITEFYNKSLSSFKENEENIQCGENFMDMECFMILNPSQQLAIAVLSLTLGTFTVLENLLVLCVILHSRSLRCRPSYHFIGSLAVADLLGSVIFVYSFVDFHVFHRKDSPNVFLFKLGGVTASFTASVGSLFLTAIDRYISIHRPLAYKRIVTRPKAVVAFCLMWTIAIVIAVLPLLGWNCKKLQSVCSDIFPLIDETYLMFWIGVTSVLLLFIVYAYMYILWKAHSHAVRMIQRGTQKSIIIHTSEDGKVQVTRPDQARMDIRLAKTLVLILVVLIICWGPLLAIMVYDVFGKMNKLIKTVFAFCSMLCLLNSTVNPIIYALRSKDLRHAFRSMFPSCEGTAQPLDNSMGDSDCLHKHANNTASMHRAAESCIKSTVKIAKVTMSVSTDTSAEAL

Sequence of hCB2 (P34972 whole entry): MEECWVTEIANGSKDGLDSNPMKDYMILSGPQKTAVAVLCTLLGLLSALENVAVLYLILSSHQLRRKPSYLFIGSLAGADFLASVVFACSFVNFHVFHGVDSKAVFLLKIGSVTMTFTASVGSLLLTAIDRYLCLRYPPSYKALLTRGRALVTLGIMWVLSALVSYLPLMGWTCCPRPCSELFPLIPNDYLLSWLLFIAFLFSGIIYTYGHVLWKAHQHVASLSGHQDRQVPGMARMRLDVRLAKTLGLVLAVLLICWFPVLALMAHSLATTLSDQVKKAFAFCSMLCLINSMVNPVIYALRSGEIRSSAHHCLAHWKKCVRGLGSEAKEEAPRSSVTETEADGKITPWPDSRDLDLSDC
Sequence of hCB1 (P21554 whole entry): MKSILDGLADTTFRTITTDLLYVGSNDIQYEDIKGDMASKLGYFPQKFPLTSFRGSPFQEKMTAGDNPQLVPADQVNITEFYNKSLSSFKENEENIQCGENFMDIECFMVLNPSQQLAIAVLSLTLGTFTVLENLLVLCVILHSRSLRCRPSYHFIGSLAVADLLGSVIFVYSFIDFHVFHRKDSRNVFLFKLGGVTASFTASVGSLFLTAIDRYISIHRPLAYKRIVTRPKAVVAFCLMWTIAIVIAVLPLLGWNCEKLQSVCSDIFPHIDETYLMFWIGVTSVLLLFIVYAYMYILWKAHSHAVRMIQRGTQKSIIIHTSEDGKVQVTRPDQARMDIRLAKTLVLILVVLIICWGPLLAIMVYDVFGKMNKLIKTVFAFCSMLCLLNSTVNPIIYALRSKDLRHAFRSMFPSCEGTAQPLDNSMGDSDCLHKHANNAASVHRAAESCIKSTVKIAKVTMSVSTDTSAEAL

As for `O=C(NCc1ccc(F)cc1)c1nn(-c2ccc(Cl)cc2)c2c1C1CC3CC(C1)CC2C3` [Example 113, N(7)-(4-Fluorobenzyl)-5-(4-chlorophenyl)-5,6-diazatetracyclo[7.3.1.1^3,11.0^4,8]tetradeca-4(8)-6-diene-7-carboxamide], the “% Displacement Protocol II” value in assay [1] is given as 27.70%. In assay [2], the “% Displacement Protocol IV” value came out at 17.02%. The “% Displacement Protocol I” value in assay [3] amounted to 55.9%.

Take `Cn1nc2c(c1C(=O)NN1CCCCC1)C1CC3CC(CC2C3)C1` [Example 189a, N(7)-Piperidino-6-methyl-5,6-diazatetracyclo[7.3.1.1^3,11.0^4,8]tetradeca-4(8)-6-diene-7-carboxamide]: in assay [1], the “% Displacement Protocol II” value was 21.2%. Moreover, the “% Displacement Protocol IV” value in assay [2] amounted to 0.81%. In assay [3], the “% Displacement Protocol I” value was found to be 7%.

With `O=C(c1nn(-c2ccc(Cl)cc2)c2c1C1CCC2C1)N1CCCCC1` (stereo not drawn) [Example 210, 1-(4-Chlorophenyl)-4,5,6,7-tetrahydro-1H-4,7-methano-indazol-3-yl piperidino methanone], the “% Displacement Protocol II” value in assay [1] was found to be 11.58%. For the same compound, in assay [2], the “% Displacement Protocol IV” value worked out at 17.69%. Further, the “% Displacement Protocol I” value in assay [3] worked out at 12.6%.

Consider `O=C(c1n[nH]c2c1C1CC3CC(CC2C3)C1)N1CCCCC1` [Example 188, 6,7-Diazatetracyclo[7.3.1.1^3,11.0^4,8]tetradeca-4(8)-5-dien-5-yl-piperidinomethanone], for which, in assay [1], the “% Displacement Protocol II” value worked out at 12.5%. In addition, the “% Displacement Protocol IV” value in assay [2] is on record as 36.01%. Also, in assay [3], the “% Displacement Protocol I” value is 19.5%.

On to `O=C(NN1CCCCC1)c1n[nH]c2c1C1CC3CC(CC2C3)C1` [Example 187, N(7)-Piperidino-5,6-diazatetracyclo[7.3.1.1^3,11.0^4,8]tetradeca-4(8)-6-diene-7-carboxamide], for which, in assay [1], the “% Displacement Protocol II” value came out at 15.66%. Besides, the “% Displacement Protocol IV” value in assay [2] turned out to be 0.7%. Also, the “% Displacement Protocol I” value in assay [3] worked out at 6.0%.

With `O=C(NCCc1ccccc1)c1nn(-c2ccc(Cl)cc2)c2c1C1CC3CC(C1)CC2C3` [Example 136, N(7)-(2-Phenylethyl)-5-(4-chlorophenyl)-5,6-diazatetracyclo[7.3.1.1^3,11.0^4,8]tetradeca-4(8)-6-diene-7-carboxamide], the “% Displacement Protocol II” value in assay [1] is recorded as 1.01%. Besides, in assay [2], the “% Displacement Protocol IV” value is given as 15.44%. The “% Displacement Protocol I” value in assay [3] was found to be 31.3%.

Regarding `O=C(c1nn(-c2ccccc2)c2c1C1CC3CC(C1)CC2C3)N1CCCCC1` [Example 171, N(7)-phenyl-6,7-diazatetracyclo[7.3.1.1^3,11.0^4,8]tetradeca-4(8)-5-dien-5-yl-piperidino methanone], the “% Displacement Protocol II” value in assay [1] was found to be 19.37%. Moreover, in assay [2], the “% Displacement Protocol IV” value is listed as 0.56%. Also, the “% Displacement Protocol I” value in assay [3] is given as 0%.

As to `O=C(NN1CCCCC1)c1nn(-c2ccccc2Br)c2c1C1CC3CC(C1)CC2C3` [Example 101, N(7)-Piperidino-5-(2-bromophenyl)-5,6-diazatetracyclo[7.3.1.1^3,110^4,8]tetradeca-4(8),6-diene-7-carboxamide], the “% Displacement Protocol II” value in assay [1] is on record as 5.75%. In addition, the “% Displacement Protocol IV” value in assay [2] came to 0%. In addition, the “% Displacement Protocol I” value in assay [3] is listed as 28.8%.
